Data taken from patent US20180369264A1, “COMBINATION OF A CARDIAC STEROID AND AN AKT INHIBITOR FOR THE TREATMENT OF CARDIOVASCULAR DISEASES AND DISORDERS” (YISSUM RESEARCH DEVELOPMENT COMPANY OF THE HEBREW …, priority 2015, published 2018).
Like-named read-outs stand apart in the source and are kept apart here.

How the values were obtained:
[1] = system: primary adult zebrafish cardiomyocytes; experiment: Primary adult zebrafish cardiomyocyte contractility; type: cell-based; details: for Amplitude / Contraction Rate (−dv/dt) / Relaxation Rate (+dv/dt): wt, 0.1 nM Oua, 0.5 Hz
Method: (§1) Adult (4 to 12-month-old) ventricular myocytes were obtained by enzymatic dissociation (with collagenase II and IV, at 5 mg/ml, each). The zebrafish were stunned by a blow to the head and the brain was pithed. The heart was quickly removed and placed in a small Petri dish containing 10 ml isolation solution: 100 mM NaCl, 10 mM KCl, 1.2 mM KH2PO4, 4 mM MgSO4, 50 mM taurine, 20 mM glucose, and 10 mM Hepes, pH 6.9. The ventricle was cut free from the bulbus and atrium under a binocular. Ventricles from 3 fish were incubated for 45 minutes at 32° C. in a solution containing perfusion buffer (150 mM NaCl, 5.4 mM KCl, 1.5 mM MgSO4, 0.4 mM NaH2PO4, 2 mM CaCl2, 10 mM glucose, and 10 mM Hepes, pH 7.7). Collagenases II and IV (Gibco, NY, USA, 5 mg/ml each) and additional CaCl2 (2.012 mM final concentration) were added. Following Eppendorf centrifugation (1 minute, 250×g at room temperature) the precipitated cells were suspended in 1 ml perfusion buffer for 30 minutes at room temperature before use.
(§2) Cells were transferred to a chamber with a quartz base and examined using an inverted epifluorescence microscope (Nikon Diaphot 200, Japan). The myocytes were field-stimulated (0.5 Hz, 70 V, square waves) and contractions were measured using a video motion edge detector (Crescent Electronics, Sandy, Utah, USA) at the rate of 5 Hz. Cardiomyocyte performance was calculated as the percentage of resting cell length. The slopes of contraction and relaxation (+dL/dt and −dL/dt) were calculated from the linear portions of the changes in contractility. 9 cells per each group were measured. Each of the experiments was repeated at least 3 times with identical results.

[2] = system: Ca^2+ transients in acc mutant zebrafish isolated adult heart; experiment: Ca^2+ transients in acc mutant zebrafish isolated adult heart; details: for Amplitude (Maximal deflection from baseline) / Area (Area under the transient relative to baseline) / Decay slope (−Δ Fluorescence in the linear phase/sec) / Rate / Rise slope (+Δ Fluorescence in the linear phase/sec): Acc mutant, Ouabain 200 μM, MK-2206 1 nM
Method: Spontaneous Ca^2+ transients were measured in isolated hearts from adult zebrafish. The zebrafish were stunned by a blow to the head and the hearts were removed quickly and placed in Dulbecco's Modified Eagle's Medium (DMEM) containing 10% Fetal Bovine Serum (FBS) at room temperature. A total 3-5 hearts were placed in a small Petri dish containing 100 μl Krebs-Ringer's solution (119 mM NaCl, 2.5 mM KCl, 1 mM NaH2PO4, 2.5 mM CaCl2, 1.3 mM MgCl2, 20 mM HEPES and 11 mM D-glucose) with 0.01 mM Fura-2 AM (Biotium, Inc., CA, USA) in DMEM-FBS. Following incubation for 10 min (37° C., 5% CO2), 150 μl of Krebs-Ringer's solution were added to the Petri dish which was incubated for an additional 30 minutes. The dye was removed from the solution by two incubations (10 minutes each, room temperature) in DMEM-FBS solution. Intracellular Ca^2+ transients were measured in stabilizing medium containing 1% low-melt agarose in Krebs-Ringer's solution. The hearts were kept for 30 minutes in the presence of MK-2206 (or saline) and then underwent excitation/emission cycles for 2 minutes at 340 and 380 nm with 510 nm emission using a PTI fluorimetric system (Photon Technology International, Madison, USA). Ouabain was then added and the excitation/emission cycles were monitored for 8 minutes. The Ca^2+ levels are presented as the ratio of 340/380 nm fluorescence emission.

[3] = system: adult acc mutant primary cardiomyocytes; experiment: acc mutant primary cardiomyocyte contractility; type: cell-based, zebrafish; details: for amplitude of contractility: 0.1 nM ouabain or 1 nM MK-2206 alone; for Amplitude / Contraction Rate (−dv/dt) / Relaxation Rate (+dv/dt): Acc mutant, 0.1 nM Oua, 1 nM MK, 20 minutes, 0.5 Hz
Method: as §1, §2

[4] = system: wild-type zebrafish larvae heart; type: in vivo, zebrafish (Danio rerio)
Method: Experiments were performed on wild-type (WT, AB strain) zebrafish (Danio rerio). The fish were maintained in accordance with the principles established by the NIH. […] The fish were kept in swimming medium (E3 medium) in small aquaria at 28° C. and maintained under a 14h: 10h light:dark cycle. The zebrafish larvae were maintained in the presence of 0.1% methylene blue (M9140, Sigma-Aldrich Inc, Israel) at 28° C. All measurements were taken in embryos at 72 hours post fertilization (hpf).
Ouabain, bufalin, digoxin, acetylcholine, carbachol, […] (pp2) and U0126 (1,4-diamino-2,3-dicyano-1,4-bis(2-aminophenylthio)butadiene) were purchased from Sigma-Aldrich Inc., Israel. The compounds were dissolved in egg water (0.3 g Instant Ocean Salt in distilled water) to a final selected concentration, as specified in the following examples. […]
Filming process Zebrafish larvae heart imaging was performed using an Olympus CKX41 (Japan) […] microscope with ×10 or ×20 magnification, and integrated incandescent illumination. A FastCam imi-tech (Korea) high speed digital camera with 640×480 pixel gray scale image sensor was mounted on the microscope, using ImCam software (IMI Technology, Co. Ltd) for high speed video recording. The larvae were anesthetized by placing them in filming/anesthetizing medium. Each larva in 0.5 ml filming/anesthetizing medium was transferred to a 96-well tissue culture plate at room temperature and sequential images of the heart were obtained, with the larvae positioned on their side, at 80 fps during 10 seconds with a shutter speed of 0.016 seconds.
Physiological parameters of cardiovascular performance, as indicated hereinbelow, were evaluated in the zebrafish larvae. Image analysis applications ImageJ (NIH, USA) were used, allowing the delineation of the endomyocardial border at the end of systole or end of diastole to define the ventricular area. Sequential still frames were analyzed to capture ventricular end-systole and end-diastole images. End Systolic Area (ESA, FIG. 1B) and End Diastolic Area (EDA, FIG. 1C) were used to calculate Fractional Area Change (FAC), according to the equation: FAC=(EDA-ESA)/EDA*100. The Ejection Fraction (EF) was determined by an independent estimate of ventricular volume. This was achieved by placing scan lines across the midventricular short axis (SA) and long axis (LA) at the end of systole (FIG. 1D) and diastole (FIG. 1E). […] EF was then calculated according to the equation: EF=(EDV-ESV)/EDV*100. Heart rate (HR) was measured in beats per minute. Cardiac output (CO) was calculated according to the equation: CO=(EDV-ESV)*HR. A minimum of five sequential pairs of systolic and diastolic cycles were measured and analyzed in 9-12 larvae for each treatment.

[5] = pre-incubation 1 nM MK-2206, 0.1 nM ouabain
[6] = Akt inhibitor experiment, 1 nM MK, 20 minutes
[7] = wt larvae, 10 nM MK-2206, 1 nM CS
[8] = ERK inhibitor experiment, 10 nM PD98059, 20 minutes

| Structure (SMILES) | Amplitude [1, 6] | Contraction Rate (−dv/dt) [1, 6] | Relaxation Rate (+dv/dt) [1, 6] | Amplitude (Maximal deflection from baseline) [2] | Area (Area under the transient relative to baseline) [2] | Decay slope (−Δ Fluorescence in the linear phase/sec) [2] | Rate [2] [wave/min] | Rise slope (+Δ Fluorescence in the linear phase/sec) [2] | amplitude of contractility [3] | Amplitude [3] | Contraction Rate (−dv/dt) [3] | Relaxation Rate (+dv/dt) [3] | also measured |
| --- | --- | --- | --- | --- | --- | --- | --- | --- | --- | --- | --- | --- | --- |
| NC1(c2ccc(-c3nc4ccn5c(=O)[nH]nc5c4cc3-c3ccccc3)cc2)CCC1 [MK-2206] | 0.19 ± 0.03 | 0.98 ± 0.19 | 0.87 ± 0.20 | 1.85 ± 0.05 | 2.79 ± 0.23 | 1.72 ± 0.22 | 25 ± 3 | 0.51 ± 0.04 | did not affect the amplitude | 0.15 ± 0.02 | 2.61 ± 0.74 | 0.98 ± 0.34 | contractility parameters, inhibitor by itself ([1]; 1 nM MK-2206): did not affect any of the contractility parameters; enhancement of ouabain-induced augmentation: increase in amplitude [1, 5]: 113%; enhancement of ouabain-induced augmentation: increase in contraction rise time [1, 5]: 183%; enhancement of ouabain-induced augmentation: increase in relaxation rise time [1, 5]: 169%; effect of inhibitor alone on heart function / basal contractility ([4]; PP2 50 nM, U0126 1 μM, MK-2206 10 nM for 2 hours): did not affect heart contractility parameters; effect on CS-induced increase in heart contractility (FAC and EF) compared with CS in the absence of the inhibitor [4, 7]: doubling of the CS-induced increase in heart contractility; effect on heart rate of MK-2206 with CS [4, 7]: not accompanied by any effect on heart rate |
| C[C@@H]1O[C@@H](O[C@H]2C[C@@H](O)[C@]3(CO)[C@H]4[C@H](O)C[C@]5(C)[C@@H](C6=CC(=O)OC6)CC[C@]5(O)[C@@H]4CC[C@]3(O)C2)[C@H](O)[C@H](O)[C@H]1O [ouabain, 3-(alpha-L-Rhamnopyranosyloxy)-1beta,5beta,11alpha,14,19-pentahydroxy-5beta-card-20(22)-enolide] | 0.38 ± 0.05 | 1.84 ± 0.28 | 1.64 ± 0.23 | 1.67 ± 0.15 | 2.54 ± 0.56 | 1.92 ± 0.46 | 35 ± 8.4 | 0.47 ± 0.1 | did not affect the amplitude | 0.14 ± 0.03 | 2.43 ± 0.84 | 0.07 ± 0.05 | increase in contractility ([1]; 0.1 nM ouabain): three- to fourfold; Amplitude [1, 8]: 0.53 ± 0.1; Contraction Rate (−dv/dt) [1, 8]: 3.65 ± 0.38; Relaxation Rate (+dv/dt) [1, 8]: 2.92 ± 0.37; changes in Ca^2+ transients parameters ([2]; acc, 200 μM ouabain): did not result in any changes in the Ca^2+ transients parameters; changes in Ca^2+ transient parameters in the presence of Akt inhibitor ([2]; acc, 200 μM ouabain, Akt inhibitor): did not cause any changes in Ca^2+ transient parameters; increase in the contraction amplitude ([3]; ouabain in the presence of Akt inhibitor): 67%; maximal increase in CO ([4]; 0.2 nM, 90 minutes): 38±3.68%; effect on force of contraction ([4]; 1 nM): increased significantly the force of contraction; effect on heart rate ([4]; 1 nM): without affecting heart rate; effect on heart rate ([4]; 0.05-0.4 nM, 90 minutes): no change in heart rate; concentration producing a significant increase in heart contractility ([4]; added to larvae swimming medium): 0.1 nM; effect on heart force of contraction (FAC, EF, CO) ([4]; low concentrations (ouabain 0.05-0.4 nM), 90 minutes): significant increase in the heart force of contraction in a dose-dependent manner |
